Columns and labels:
[1] = test system: subjects with primary focal hyperhidrosis; assay: Dry Mouth Visual Analog Scale (DMVAS), crossover clinical study; assay type: in vivo, human; conditions: 100 mm scale, 100 = worst; PP; n 18
Source text: The clinical study was a randomized, double blind, placebo-controlled, crossover study of approximately 18 subjects. Following qualification, subjects were randomized to one of 6 groups/sequences during which they received each of the three study treatments in sequential treatment periods. Each 21-day double-blind study treatment period was preceded by an at least 7-day washout period. Subsequent study treatment assignments were via the sequential three-way crossover design prescribed in that group. […]
The DMVAS will be used to quantify the severity of dry mouth experienced by subjects during this clinical trial. […] The score was determined by measuring the distance from the left anchor to where the line that the subject drew bisected the (100 mm) scale. The distance was measured and recorded in millimeters (mm). […]
(§1) Efficacy and safety analyses were conducted on study treatment (THVD-102 [7.5/7.5], oxybutynin or placebo). […] There was a statistically significant effect in each of three measures of efficacy: • 1) Hyperhidrosis Disease Severity Scale (p=0.03-0.05) • THVD-102 [7.5/7.5]=1.06±1.11; Oxybutynin=1.33±1.03; placebo=0.5±0.62 1 point drop=50% reduction in sweating; 2 points=80% reduction • 2) Hyperhidrosis Visual Analog Scale (p=0.01) • 3) Hyperhidrosis Visual Quantification Scale (p=0.005-0.07)

[2] = test system: subjects with primary focal hyperhidrosis; assay: Hyperhidrosis Disease Severity Scale (HDSS), crossover clinical study; assay type: in vivo, human; conditions: BID by mouth, 21-day treatment period; 1 point drop=50% reduction in sweating, 2 points=80% reduction
Source text: (§2) The clinical study was a randomized, double blind, placebo-controlled, crossover study of approximately 18 subjects. Following qualification, subjects were randomized to one of 6 groups/sequences during which they received each of the three study treatments in sequential treatment periods. Each 21-day double-blind study treatment period was preceded by an at least 7-day washout period. Subsequent study treatment assignments were via the sequential three-way crossover design prescribed in that group. After completing the final study treatment period or early study treatment discontinuation, all subjects completed an end of study visit (approximately 14 days after the last study treatment administration. FIG. 5 illustrates a scheme of the clinical study design.
Subjects were randomized to 1 of 6 groups/sequences of study treatment administration. […]
as §1

[3] = test system: subjects with primary focal hyperhidrosis; assay: Dry Mouth Questions (Dry Mouth Severity/Incidence Questionnaire), crossover clinical study; assay type: in vivo, human; conditions: PP, n 18
Source text: as §2
The active control of oxybutynin 7.5 mg is the comparator for THVD-102 [7.5/7.5] for the anti-muscarinic induced dry mouth symptom incidence and severity.
Subjects were randomized to 1 of 6 groups/sequences of study treatment administration. Each sequence included sequential crossover assignment to a 21-day treatment period of: • oxybutynin 7.5 mg BID alone by mouth; • THVD-102 [7.5/7.5] (oxybutynin 7.5 mg in combination with pilocarpine 7.5 mg) BID by mouth; and • placebo BID by mouth.
Dry Mouth Questions (Dry Mouth Severity/Incidence Questionnaire)
At the end of the end of each treatment period, investigational site staff questioned subjects regarding the incidence of dry mouth. This assessment occurred after the subject had completed the DMVAS and DTVAS and included questions relating to the incidence and severity of dry mouth symptoms and remedial actions taken. The investigator was instructed to query subjects in a non-judgmental, non-leading manner using the following script (© 2012, Thomas Tremblay and Robin Allgren) to elicit the incidence of dry mouth: • Have you had any dry mouth since starting (the most recent) study treatment? (at completion of Treatment Periods 1, 2, and 3)
as §1, with “placebo). Continuous data were summarized by using descriptive statistics (mean, SD, median, min, max) and categorical data were summarized in frequency tables. Using Day 1 of the first and each subsequent Treatment Period as baselines for measuring treatment effect, a Wilcoxon signed-rank test were performed.” for “placebo).”

[4] = Jacobs 1996; Cheshire and Fealey 2008; Salagen product insert; cited from earlier work

SMILES	Dry mouth Visual Analog Scale, Change D0-D21 [1]	Hyperhidrosis Disease Severity Scale [2]	Moderate/Severe dry mouth, number of subjects [3]	Moderate/Severe dry mouth, percent of subjects [3]	None/Mild dry mouth, number of subjects [3]	None/Mild dry mouth, percent of subjects [3]	effect on sweating [4]
CCN(CC)CC#CCOC(=O)C(O)(c1ccccc1)C1CCCCC1 (stereo not shown) [Oxybutynin, 4-Diethylaminobut-2-ynyl 2-cyclohexyl-2-hydroxy-2-phenylethanoate]	43.9 ± 27.9 mm	1.33±1.03	13	72%	5	27%	–
CC[C@@H]1C(=O)OC[C@@H]1Cc1cncn1C [pilocarpine, (3S,4R)-3-Ethyl-4-((1-methyl-1H-imidazol-5-yl)methyl)dihydrofuran-2(3H)-one]	–	–	–	–	–	–	known to cause an increase in sweating

Reference: patent US11779569B2, “Methods and compositions for treating hyperhidrosis” (THERAVIDA, INC., priority 2016, dated 2023)
